We go through two compounds from US10772884B2, “Sulphate salts of N-(3-(4-(3-(diisobutylamino)propyl)piperazin-1-yl)propyl)-1H-benzo[d]imidazol-2-amine, preparation thereof and use of the same” (ALZPROTECT, priority 2012, dated 2020).

Series [1] has as its system lipid peroxidation. Kind of series: Chronic treatment 3-months, LPO levels (modified FOX assay). In kind it is in vivo, C57Bl6 female mice. The note with it: mice, 0.5, 1 or 3 mg/kg in drinking water, hippocampi. From the text:
(§1) Neuropathological disorders are also characterized by abnormal phosphorylation of Tau protein (AT100). Hyperphosphorylation of the tau protein (on specific sites) can result in the intracellular accumulation of neurofibrillary tangles (NFTs), involved in the pathogenesis of Alzheimer's disease and other tauopathies. One axis of the study was thus to study the effect of the sulphate salt of example 2 on this abnormal phosphorylation. In parallel, such effect was also monitored with regards to the non-pathological phosphorylation of Tau protein (AT8) which should remain unaffected. Another axis of this study was thus the impact of the sulphate salt of example 2 on oxidative stress (OS). Therefore, levels of lipidic peroxidation, a well known marker for the evaluation of oxidative stress, were determined. […]
4-month old C57Bl6 female mice were provided with 0.5, 1 or 3 mg/kg of compound of example 2 dissolved in their drinking water. […] Volume consumed was calculated by weighing each bottle after each week and the remaining volume was discarded.
LPO levels measurements: the level of lipid peroxidation in hippocampi is determined as cumene hydroperoxide (CHP) equivalents and expressed as CHP equivalents per wet weight of tissue and as percentage of control group data following the modified FOX assay.

Series [2] is described as follows: water solubility. It is filed as physicochemical.
The test system of series [3] is APP metabolism. Kind of series: In vivo APP metabolism assay, chronic treatment 1-month. The arrangement: species or system Sprague Dawley rats. The note with it: rats, 1 or 10 mg/kg/day in drinking water, one month. The protocol: (§2) In vivo experiments were carried out on 4-month old C57Bl6 female mice or 2-month old Sprague Dawley rats.
Chronic Treatment: 1-Month
Rats were provided for one month with 1 or 10 mg/kg/day of the compound of example 2 dissolved in their drinking water. […] The animals were sacrificed after one month and levels of CTFα and CTFβ in the frontal cortex (FC) and/or the hippocampus (HIP) were measured by western-blot analysis as previously described. Dose dependent results are shown on FIGS. 22-a and 22-b. […] The frontal cortex is generally the first region of the brain to be affected by amyloid plaques formation in abnormal APP metabolism related diseases while the hippocampus, which is highly involved in memory and recollection processes, is latterly but severely affected. The sulphate salt of example 2 thus has very positive effect on APP metabolism in both the frontal cortex and the hippocampus and could is therefore of interest in the treatment of neurodegenerative diseases, in particular for both early and advanced stages of abnormal APP metabolism related diseases.

Series [4] relates to Tau protein. Kind of series: Chronic treatment 3-months, Tau protein phosphorylation. It is filed as in vivo, C57Bl6 female mice. As to conditions: mice, 0.5, 1 or 3 mg/kg in drinking water, brain tissues.
From the text: Chronic Treatment: 3-Months
as §1, with “determined. Indeed, oxidative stress (OS), by the generation of toxic reactive oxygen species (ROS) and oxidative damage (oxidation of vital cellular components as lipids, proteins and DNA), is believed to be involved in the pathogenesis of neurodegenerative disorders.” for “determined.”
4-month old C57Bl6 female mice were provided with 0.5, 1 or 3 mg/kg of compound of example 2 dissolved in their drinking water. […] Volume consumed was calculated by weighing each bottle after each week and the remaining volume was discarded. […]

In series [5] the test system is APP metabolism. Kind of series: In vivo APP metabolism assay, acute treatment 24 h p.o. The arrangement: species or system C57Bl6 female mice. The protocol:
In Vivo APP Metabolism Assay
as §2
Acute treatment: 24 h p.o.
C57Bl6 female mice were treated per os (gavage) with vehicle or compound (example 2) at 0.25, 0.5, 1, 3 and 6 mg/kg mg/kg (n=6 per group) for 24 h. The product was administered with a disposable Rodent Feeding Tube ECIMED Ref # V0104030 (4 mm×30 mm). The animals were sacrificed after 24 h, the brain was immediately removed for dissection. Levels of CTFα in the frontal cortex (FC) and/or the hippocampus (HIP) were measured by western-blot analysis as previously described. Briefly, tissues were homogenized with […], of lysis buffer (10 mL of Laemmli Pre-Lysis Buffer and 1 tablet of Protease Inhibitor cocktail Complete Mini (Roche)) in a potter. After sonication (5 min), homogenates were centrifuged at 1600 rpm 5 min 4° C. Supernatants were aliquoted and stored at −80° C. before western blot analysis.

Series [6] has as its system APP metabolism in SH-5Y5Y cells (human neuroblastoma cell line overexpressing wild type human APP). Kind of series: In vitro APP metabolism assay. As to conditions: 0.3, 1, 3 and 10 μM, 24 h. It is filed as cell-based. As to the method: In Vitro APP Metabolism Assay
This assay was performed using SH-5Y5Y cells (human neuroblastoma cell line overexpressing wild type human APP) which were treated for 24 h with the sulphate salt of example 2. This test was carried out at four different compound concentrations of 0.3, 1, 3 and 10 μM. Quantification of different metabolites was achieved by western-blot analysis. CTFa, CTFβ and AICD were analysed using anti-actin ((I-19) (SC-1616 Santa Cruz Biotechnology; 1:1000 from 200 μg/ml stock) as an internal control and anti-C term APP antibody (1:250000 in washing buffer). Protein concentrations were determined by the BCA Protein Assay Kit (Thermo Scientific). Samples (20 μg total protein) were separated by 16% SDS-PAGE according to the molecular weight of each protein, and transferred to nitrocellulose membranes.

Series [7] deals with SH-5Y5Y cell line. Kind of series: cytotoxicity CC50. It is filed as cell-based, human. The note with it: concentration at which 50% of plated cells remain alive. As to the method:
In addition, it is remarked that no cytotoxicity was found for this sulphate salt, its CC50 on SH-5Y5Y cell line was found greater than 30 μM. CC50 is defined herein as the concentration at which 50% of plated cells remain alive.

A short description of series [8]: salt formation results (physical form). It is filed as physicochemical. The note with it: Acid eq. added 0. The protocol: The hydrochloride, hydrobromide, acetate, tartrate, fumarate, malate, oxalate and sulphate salts of N-(3-(4-(3-(diisobutylamino)propyl)piperazin-1-yl)propyl)-1H-benzo[d]imidazol-2-amine were prepared according to procedures similar to those described in the previous examples or standard salt formation methods well known in the art.

The nature of series [9]: long term stability (oxidation) in solid state. As to conditions: oxidation at the piperazine ring. In kind it is physicochemical.

Where a name gives a salt, the structure may show the parent alone.

Regarding `CC(C)CN(CCCN1CCN(CCCNc2nc3ccccc3[nH]2)CC1)CC(C)C` [Example 2, N-(3-(4-(3-(diisobutylamino)propyl)piperazin-1-yl)propyl)-1H-benzo[d]imidazol-2-amine, 1.8 eq sulphate salt], in series [1], the LPO levels result is recorded as “significant decrease”. Further, the water solubility result in [2] was “remarkable high solubility”. Further, in series [3], the “CTFα levels in the frontal cortex” value is recorded as “increasing concentrations” and the “CTFβ levels in the hippocampus” value is recorded as “decreasing concentrations”. Also, in series [4], the “AT8 levels (normal Tau protein phosphorylation)” value is given as “not affecting” and the “AT100 levels (pathological Tau protein phosphorylation)” value is “decreases”. In [5] (mice, 6 mg/kg per os), the “CTFα levels in the frontal cortex, comparison to the oxalate salt of WO2006/051489” value was “superior efficiency”. The “CTFα levels in the frontal cortex” value in series [5] (mice, 0.25, 0.5, 1, 3 and 6 mg/kg per os) is on record as “increasing concentrations”. For the same compound, in [6], the Aβ1-42 levels result is “decreased level” and the sAPPα levels entry was “dose dependent increased levels”. Besides, in series [6] (western-blot), the AICD levels result is on record as “dose dependent increased levels” and the CTFα levels entry is on record as “dose dependent increased levels”. The compound further returned a CC50 in series [7] of over 30 µM.

`CC(C)CN(CCCN1CCN(CCCNc2nc3ccccc3[nH]2)CC1)CC(C)C` [Free base, N-(3-(4-(3-(diisobutylamino)propyl)piperazin-1-yl)propyl)-1H-benzo[d]imidazol-2-amine]: in series [8], the Physical form entry is “Amorphous powder”. Also, in [9], the long term stability result is on record as “long term stability issues”.
